Test results reported in ChEMBL document CHEMBL5360530, “Structure activity relationship (SAR) and anticancer activity of pyrrolidine derivatives: Recent developments and future prospects (A review)” (Eur J Med Chem, 2023).

Legend:
[1] = Cytotoxicity against human Chang liver cells assessed as cell growth inhibition measured after 24 hrs by DAPI and propidium iodide staining based assay; assay type: toxicity
M-HeLa = assay: Anticancer activity against human HelaM cells assessed as cell growth inhibition measured after 24 hrs by DAPI and propidium iodide staining based assay; assay type: functional
HepG2 [2] = assay: Anticancer activity against human HepG2 cells assessed as cell growth inhibition measured after 48 hrs by MTT assay; assay type: functional, cell-based; settings: HepG2, 48 h
MCF7 [3] = assay: Anticancer activity against human MCF7 cells assessed as cell growth inhibition measured after 48 hrs by MTT assay; assay type: functional, cell-based; settings: MCF7, 48 h
HCT-116 = assay: Anticancer activity against human HCT-116 cells assessed as cell growth inhibition measured after 48 hrs by MTT assay; assay type: functional, cell-based; settings: HCT-116, 48 h
PC-3 = assay: Anticancer activity against human PC-3 cells assessed as cell growth inhibition measured after 48 hrs by MTT assay; assay type: functional, cell-based; settings: PC-3, 48 h
A-431 = assay: Anticancer activity against human A-431 cells assessed as cell growth inhibition at 100 uM by MTT assay relative to control; assay type: functional
MCF7 [4] = assay: Anticancer activity against human MCF7 cells assessed as cell growth inhibition at 100 uM by MTT assay relative to control; assay type: functional
HepG2 [5] = assay: Anticancer activity against human HepG2 cells assessed as cell growth inhibition at 100 uM by MTT assay relative to control; assay type: functional

SMILES	IC50 at 24 h [1] [µM]	IC50 (M-HeLa) [µM]	further results
Cc1cc(O)c(CCN(C)C)c(=O)o1	> 100	≥ 14.7	–
Oc1cc2c(cc1-c1ccc(F)cc1)OCO2	> 100	14.7	–
O=C(/C=C/c1ccco1)[C@H]1[C@H](c2ccco2)C2CSCN2C12C(=O)Nc1c(Br)cc(Br)cc12 (some centres not stated)	–	–	IC50 (HepG2 [2]): ≥ 0.8 µM; IC50 (MCF7 [3]): 2.5 µg/mL; IC50 (HCT-116): 1.57 µg/mL
Cc1cc(O)c(-c2ccc(Br)cc2)c(=O)o1	> 100	≥ 14.7	–
O=c1oc2ccccc2c(O)c1-c1ccc(F)cc1	> 100	≥ 14.7	–
Cc1ccc(/C=C/C(=O)[C@H]2[C@H](c3ccc(C)cc3)C3CSCN3C23C(=O)Nc2c(Br)cc(Br)cc23)cc1 (some centres not stated)	–	–	IC50 (HepG2 [2]): ≥ 0.8 µM; IC50 (MCF7 [3]): 2.5 µg/mL; IC50 (HCT-116): 1.57 µg/mL
O=C(/C=C/c1cccc([N+](=O)[O-])c1)[C@H]1[C@H](c2cccc([N+](=O)[O-])c2)C2CSCN2C12C(=O)Nc1c(Br)cc(Br)cc12 (some centres not stated)	–	–	IC50 (HepG2 [2]): 5 µM; IC50 (MCF7 [3]): 4 µM; IC50 (HCT-116): 2.8 µM
Cc1cc(O)c(C2CCCCC2)c(=O)o1	> 100	≥ 14.7	–
CCCCCCc1cc2c(cc1O)OCO2	> 100	14.7	–
O=[N+]([O-])c1c(Cl)cc2c(no[n+]2[O-])c1Nc1ccc(-c2ccc(F)cc2)c(O)c1	> 100	≥ 14.7	–
O=[N+]([O-])c1c(Cl)cc2c(no[n+]2[O-])c1Nc1cccc(O)c1	> 100	≥ 14.7	–
Cc1cc(O)c(-c2ccccc2)c(=O)o1	> 100	≥ 14.7	–
CN(C)CCc1cc2c(cc1O)OCO2	> 100	14.7	–
COc1ccc(-c2cc3c(cc2O)OCO3)cc1	> 100	14.7	–
CCCCCCc1ccc(Nc2c([N+](=O)[O-])c(Cl)cc3c2no[n+]3[O-])cc1O	> 100	≥ 14.7	–
COc1ccc(-c2c(O)cc(C)oc2=O)cc1	> 100	≥ 14.7	–
Oc1cc2c(cc1-c1ccc(Br)cc1)OCO2	> 100	14.7	–
O=C(/C=C/c1ccc(Cl)cc1)[C@H]1[C@H](c2ccc(Cl)cc2)C2CSCN2C12C(=O)Nc1c(Br)cc(Br)cc12 (some centres not stated)	–	–	IC50 (HCT-116): < 3 µM

SMILES	IC50 at 24 h [1] [µM]	IC50 (M-HeLa) [µM]	further results
CN(C)CCc1c(O)c2ccccc2oc1=O	> 100	≥ 14.7	–
Cc1cc(O)c(-c2ccc(F)cc2)c(=O)o1	> 100	≥ 14.7	–
O=[N+]([O-])c1c(Cl)cc2c(no[n+]2[O-])c1Nc1ccc(C2CCCCC2)c(O)c1	> 100	≥ 14.7	–
CN(C)CCc1ccc(Nc2c([N+](=O)[O-])c(Cl)cc3c2no[n+]3[O-])cc1O	> 100	≥ 14.7	–
O=c1oc2ccccc2c(O)c1C1CCCCC1	> 100	≥ 14.7	–
O=[N+]([O-])c1c(Cl)cc2c(no[n+]2[O-])c1Nc1ccc(-c2ccccc2)c(O)c1	> 100	≥ 14.7	–
O=c1oc2ccccc2c(O)c1-c1ccc(Br)cc1	> 100	≥ 14.7	–
COc1ccc(-c2ccc(Nc3c([N+](=O)[O-])c(Cl)cc4c3no[n+]4[O-])cc2O)cc1	> 100	≥ 14.7	–
O=C(/C=C/c1ccc(C(F)(F)F)cc1)[C@H]1[C@H](c2ccc(C(F)(F)F)cc2)[C@H]2CSCN2[C@]12C(=O)Nc1ccccc12	–	–	IC50 (HepG2 [2]): ≥ 1.5 µM; IC50 (PC-3): 1 µM
O=C(/C=C/c1cccc(Br)c1)[C@H]1[C@H](c2cccc(Br)c2)C2CSCN2C12C(=O)Nc1c(Br)cc(Br)cc12 (some centres not stated)	–	–	IC50 (HCT-116): < 3 µM
O=C(/C=C/c1ccc(F)cc1)[C@H]1[C@H](c2ccc(F)cc2)[C@H]2CSCN2[C@]12C(=O)Nc1ccc(Br)cc12	–	–	IC50 (HepG2 [2]): 0.8 µM; IC50 (PC-3): ≥ 0.8 µM
O=C(/C=C/c1ccc(F)cc1)[C@H]1[C@H](c2ccc(F)cc2)C2CSCN2C12C(=O)Nc1c(Br)cc(Br)cc12 (some centres not stated)	–	–	IC50 (HepG2 [2]): ≥ 0.8 µM; IC50 (MCF7 [3]): 2.5 µg/mL; IC50 (HCT-116): 1.57 µg/mL
Cc1cc(O)cc(=O)o1	> 100	≥ 14.7	–
O=c1oc2ccccc2c(O)c1-c1ccccc1	> 100	≥ 14.7	–
Cc1ccc(S(=O)(=O)N2CCCC2C(=O)Nc2ccc3c(C)cc(=O)oc3c2)cc1 (single isomer, unassigned)	–	–	IC50 (MCF7 [3]): 1.07 µM
O=c1cc(O)c2ccccc2o1 [4-HYDROXYCOUMARINS]	> 100	≥ 14.7	–
CCCCCCCCCCCCCCCCOP(=O)([O-])OCC[N+](C)(C)C [MILTEFOSINE]	–	–	inhibition at 100 µM (A-431): 35.4%; inhibition at 100 µM (MCF7 [4]): 69.4%; inhibition at 100 µM (HepG2 [5]): 31.3%
